Data on 17 compounds can be found in patent US9540343B2 (Gilead Sciences, Inc., priority 2011, dated 2017).

Series [1] has as its system HIV-IIIb. Put plainly: Test A: Antiviral assay in MT4 cells. The note with it: MT-4 cells infected with HIV-IIIb, 5 days, CellTiter-Glo; for inhibition at 2 µM: Human immunodeficiency virus 1, IIIB, MT4, 120 h, read-out: % inhibition at 2 μM, percent inhibition of virus-induced cell killing, from dose response curve at 2 uM drug. The class given is cell-based, HIV-1.
A short description of series [2]: in vitro. The note with it: human, uninfected MT-4 cells, CC50 (nM), same protocol as Test A, CellTiter-Glo. An outline of the steps: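 Cytoprotection read-out: CellTiter-Glo chemiluminescence after 5 days at 37 °C of HIV-IIIb-infected MT-4 cells (m.o.i. 0.003) with compound in 10-point 3-fold dilutions, quadruplicate, 10% FBS. Cytotoxicity (CC50) measured identically without virus.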

Each structure is given as a SMILES string.

`NC(=O)c1cc(-c2cccnc2[C@H](Cc2cc(F)cc(F)c2)NC(=O)Cn2nc(C(F)(F)F)c3c2CCNC3=O)ccc1F` [Example 270C, (S)-5-(2-(2-(3,5-difluorophenyl)-1-(2-(4-oxo-3-(trifluoromethyl)-4,5,6,7-tetrahydro-1H-pyrazolo[4,3-c]pyridin-1-yl)acetamido)ethyl)pyridin-3-yl)-2-fluorobenzamide]: the inhibition at 2 µM in series [1] worked out at 1%. The same compound had a 50% cytotoxic concentration (CC50) at 5 days in series [2] of more than 53200 nM.

On to `Cc1cnc([C@H](Cc2cc(F)cc(F)c2)NC(=O)Cc2c[nH]c3ccc(O)cc23)c(-c2ccc(F)c(C(N)=O)c2)c1` [Example 262G, (S)-5-(2-(2-(3,5-difluorophenyl)-1-(2-(5-hydroxy-1H-indol-3-yl)acetamido)ethyl)-5-methylpyridin-3-yl)-2-fluorobenzamide], for which the inhibition at 2 µM in series [1] was 109%. The same compound showed a CC50 at 5 days in series [2] of more than 51200 nM.

`NC(=O)c1cc(-c2cccnc2[C@H](Cc2cc(F)cc(F)c2)NC(=O)Cn2nc(C(F)F)cc2C(F)F)ccc1F` [Example 505, (S)-5-(2-(1-(2-(3,5-bis(difluoromethyl)-1H-pyrazol-1-yl)acetamido)-2-(3,5-difluorophenyl)ethyl)pyridin-3-yl)-2-fluorobenzamide]: the inhibition at 2 µM in series [1] came out at 28%. In addition, in series [2], the cytotoxic concentration (CC50) at 5 days was more than 47400 nM.

In the case of `Cc1cc2[nH]cc(CC(=O)N[C@@H](Cc3cc(F)cc(F)c3)c3ncccc3-c3cccc(C(N)=O)c3)c2cc1OCc1ccccc1` [Example 536I, (S)-3-(2-(1-(2-(5-(benzyloxy)-6-methyl-1H-indol-3-yl)acetamido)-2-(3,5-difluorophenyl)ethyl)pyridin-3-yl)benzamide], the inhibition at 2 µM in series [1] was 12%. The half-maximal cytotoxic concentration (CC50) at 5 days in series [2] was found to be 8600 nM.

`Cc1nc(C(F)(F)F)nn1CC(=O)N[C@@H](Cc1cc(F)cc(F)c1)c1ncccc1-c1ccc(F)c(C(N)=O)c1` [Example 374, (S)-5-(2-(2-(3,5-difluorophenyl)-1-(2-(5-methyl-3-(trifluoromethyl)-1H-1,2,4-triazol-1-yl)acetamido)ethyl)pyridin-3-yl)-2-fluorobenzamide]: in series [1], the inhibition at 2 µM worked out at 5%. Also, in series [2], the cytotoxic concentration (CC50) at 5 days was more than 53200 nM.

As to `CC(C)(C)c1cc(C(F)(F)F)n(CC(=O)N[C@@H](Cc2cc(F)cc(F)c2)c2ncccc2-c2ccc(F)c(C(N)=O)c2)n1` [Example 238E, (S)-5-(2-(1-(2-(3-(tert-butyl)-5-(trifluoromethyl)-1H-pyrazol-1-yl)acetamido)-2-(3,5-difluorophenyl)ethyl)pyridin-3-yl)-2-fluorobenzamide], the inhibition at 2 µM in series [1] is 12%. Besides, in series [2], half-maximal cytotoxicity (CC50 at 5 days) was put at 17000 nM.

In the case of `Cc1cc(F)ccc1-c1cccnc1[C@H](Cc1cc(F)cc(F)c1)NC(=O)Cc1c[nH]c2ccc(F)cc12` [Example 404, (S)—N-(2-(3,5-difluorophenyl)-1-(3-(4-fluoro-2-methylphenyl)pyridin-2-yl)ethyl)-2-(5-fluoro-1H-indol-3-yl)acetamide], in series [1], the inhibition at 2 µM worked out at 0%. The same compound returned a cytotoxic concentration (CC50) at 5 days in series [2] of 44600 nM.

Turning to `NC(=O)c1cc(-c2cccnc2[C@H](Cc2cc(F)cc(F)c2)NC(=O)Cn2nc(C(F)(F)F)c3c2C(O)C2CC32)ccc1F` (stereo partly drawn) [Example 154, 5-(2-((1S)-2-(3,5-difluorophenyl)-1-(2-(5-hydroxy-3-(trifluoromethyl)-3b,4,4a,5-tetrahydro-1H-cyclopropa[3,4]cyclopenta[1,2-c]pyrazol-1-yl)acetamido)ethyl)pyridin-3-yl)-2-fluorobenzamide], in series [1] (percent inhibition of virus-induced cell killing, from dose response curve at 2 uM drug), the “% inhibition at 2 μM” value stood at 90%. Further, the 50% cytotoxic concentration (CC50) at 5 days in series [2] was 36800 nM.

In the case of `O=C(Cc1c[nH]c2ccc(=O)[nH]c12)N[C@@H](Cc1cc(F)cc(F)c1)c1ncccc1-c1ccc(Cl)cc1` [Example 37, (S)—N-(1-(3-(4-chlorophenyl)pyridin-2-yl)-2-(3,5-difluorophenyl)ethyl)-2-(5-oxo-4,5-dihydro-1H-pyrrolo[3,2-b]pyridin-3-yl)acetamide], the inhibition at 2 µM in series [1] came out at 84%. In addition, half-maximal cytotoxicity in series [2] (CC50 at 5 days) was put at 34200 nM.

`O=C(Cn1nc(C(F)F)c2c1C(F)(F)C1CC21)N[C@@H](Cc1cc(F)cc(F)c1)c1ncncc1-c1ccc2cnccc2c1` (stereo partly drawn) [Example 131C, 2-(3-(difluoromethyl)-5,5-difluoro-3b,4,4a,5-tetrahydro-1H-cyclopropa[3,4]cyclopenta[1,2-c]pyrazol-1-yl)-N—((S)-2-(3,5-difluorophenyl)-1-(5-(isoquinolin-6-yl)pyrimidin-4-yl)ethyl)acetamide]: the inhibition at 2 µM in series [1] amounted to 47%. Half-maximal cytotoxicity in series [2] (CC50 at 5 days) was put at 10400 nM.

As for `NC(=O)c1cc(-c2cccnc2[C@H](Cc2cccc(F)c2)NC(=O)Cc2cc(=O)[nH]c3ccccc23)ccc1F` [Example 257, (S)-2-fluoro-5-(2-(2-(3-fluorophenyl)-1-(2-(2-oxo-1,2-dihydroquinolin-4-yl)acetamido)ethyl)pyridin-3-yl)benzamide], in series [1], the inhibition at 2 µM amounted to 7%. Further, the half-maximal cytotoxic concentration (CC50) at 5 days in series [2] is more than 53200 nM.

With `NC(=O)c1cc(-c2cccnc2[C@H](Cc2cc(F)cc(F)c2)NC(=O)Cn2nc3c(c2C(F)(F)F)C(F)(F)C2CC32)ccc1F` (stereo partly drawn) [Example 381, 5-(2-((1S)-1-(2-(4,4-difluoro-3-(trifluoromethyl)-4,4-a,5,5a-tetrahydro-2H-cyclopropa[4,5]cyclopenta[1,2-c]pyrazol-2-yl)acetamido)-2-(3,5-difluorophenyl)ethyl)pyridin-3-yl)-2-fluorobenzamide], the inhibition at 2 µM in series [1] is 1%. Also, the cytotoxic concentration (CC50) at 5 days in series [2] is 24900 nM.

For `O=C(Cc1c[nH]c2ccc(F)cc12)N[C@@H](Cc1cc(F)cc(F)c1)c1ncccc1-c1cccc(C(F)(F)F)c1` [Example 110, (S)—N-(2-(3,5-difluorophenyl)-1-(3-(3-(trifluoromethyl)phenyl)pyridin-2-yl)ethyl)-2-(5-fluoro-1H-indol-3-yl)acetamide], the inhibition at 2 µM in series [1] was 6%. The CC50 at 5 days in series [2] was 7610 nM.

For the compound `Cc1cc(C)c2c(c1)C(CC(=O)N[C@@H](Cc1cc(F)cc(F)c1)c1ncccc1-c1ccc(F)c(C(N)=O)c1)C(=O)N2` (stereo partly drawn) [Example 205, 5-(2-((1S)-2-(3,5-difluorophenyl)-1-(2-(5,7-dimethyl-2-oxoindolin-3-yl)acetamido)ethyl)pyridin-3-yl)-2-fluorobenzamide], the inhibition at 2 µM in series [1] came out at 12%. In series [2], the CC50 at 5 days was 13100 nM.

With `NC(=O)c1cc(-c2cccnc2[C@H](Cc2cc(F)cc(F)c2)NC(=O)Cn2ccnc2-c2ccccc2)ccc1F` [Example 149, (S)-5-(2-(2-(3,5-difluorophenyl)-1-(2-(2-phenyl-1H-imidazol-1-yl)acetamido)ethyl)pyridin-3-yl)-2-fluorobenzamide], in series [1], the inhibition at 2 µM was determined as 2%. In series [2], the CC50 at 5 days was more than 53200 nM.

For the compound `NC(=O)c1cc(-c2cccnc2[C@H](Cc2cc(F)cc(F)c2)NC(=O)Cn2nc(C(F)(F)F)c3c2C(F)(F)CC3)ccc1F` [Example 283C, (S)-5-(2-(1-(2-(6,6-difluoro-3-(trifluoromethyl)-5,6-dihydrocyclopenta[c]pyrazol-1(4H)-yl)acetamido)-2-(3,5-difluorophenyl)ethyl)pyridin-3-yl)-2-fluorobenzamide], the inhibition at 2 µM in series [1] came out at 65%. In addition, in series [2], the CC50 at 5 days worked out at 24400 nM.

Take `Cc1ccccc1-c1cccnc1C(Cc1cc(F)cc(F)c1)NC(=O)Cn1nc(C(F)(F)F)c2c1CCCC2` (stereo not shown) [Example 4, N-(2-(3,5-difluorophenyl)-1-(3-o-tolylpyridin-2-yl)ethyl)-2-(3-(trifluoromethyl)-4,5,6,7-tetrahydro-1H-indazol-1-yl)acetamide]: in series [1], the inhibition at 2 µM came to 69%. The compound further yielded a CC50 at 5 days in series [2] of 10300 nM.
